Assays:
Assay in all cases: KINOMEscan scanMAX
Format in all cases: binding
Details in all cases: read-out: Percent Control
[1] = target: T1, TNK2 (Homo sapiens, UniProt Q07912)
T1 construct: purchased Eurofins Discovery (DiscoverX KINOMEscan scanMAX)
Procedure: (§1) The kinome-wide binding assay was performed by Eurofins Discovery using the scanMAX screening platform. More information can be found on the Eurofins Discovery Web site.

[2] = target: T2, TSSK3 (Homo sapiens, UniProt Q96PN8)
T2 construct: purchased Eurofins Discovery (DiscoverX KINOMEscan scanMAX)
Procedure: as §1

[3] = target: T3, CDK11 (Homo sapiens, UniProt Q9BWU1)
T3 construct: purchased Eurofins Discovery (DiscoverX KINOMEscan scanMAX)
Procedure: as §1

[4] = target: T4, CSF1R (Homo sapiens, UniProt P07333)
T4 construct: purchased Eurofins Discovery (DiscoverX KINOMEscan scanMAX)
Procedure: as §1

[5] = target: T5, NEK1 (Homo sapiens, UniProt Q96PY6)
T5 construct: purchased Eurofins Discovery (DiscoverX KINOMEscan scanMAX)
Procedure: as §1

[6] = target: T6, KIT(A829P) (Homo sapiens, UniProt P10721, A829P)
T6 construct: purchased Eurofins Discovery (DiscoverX KINOMEscan scanMAX)
Procedure: as §1

[7] = target: T7, YSK1 (Homo sapiens, UniProt O00506)
T7 construct: purchased Eurofins Discovery (DiscoverX KINOMEscan scanMAX)
Procedure: as §1

[8] = target: T8, CDK4-cyclinD3 (Homo sapiens, UniProt P11802)
T8 construct: purchased Eurofins Discovery (DiscoverX KINOMEscan scanMAX)
Procedure: as §1

[9] = target: T9, DCAMKL1 (Homo sapiens, UniProt O15075)
T9 construct: purchased Eurofins Discovery (DiscoverX KINOMEscan scanMAX)
Procedure: as §1

[10] = target: T10, CSK (Homo sapiens, UniProt P41240)
T10 construct: purchased Eurofins Discovery (DiscoverX KINOMEscan scanMAX)
Procedure: as §1

[11] = target: T11, PLK3 (Homo sapiens, UniProt Q9H4B4)
T11 construct: purchased Eurofins Discovery (DiscoverX KINOMEscan scanMAX)
Procedure: as §1

[12] = target: T12, PAK2 (Homo sapiens, UniProt Q13177)
T12 construct: purchased Eurofins Discovery (DiscoverX KINOMEscan scanMAX)
Procedure: as §1

[13] = target: T13, GRK2 (Homo sapiens, UniProt P25098)
T13 construct: purchased Eurofins Discovery (DiscoverX KINOMEscan scanMAX)
Procedure: as §1

[14] = target: T14, DCAMKL3 (Homo sapiens, UniProt Q9C098)
T14 construct: purchased Eurofins Discovery (DiscoverX KINOMEscan scanMAX)
Procedure: as §1

[15] = target: T15, ABL1(F317I)-nonphosphorylated (Homo sapiens, UniProt P00519, F317I)
T15 construct: purchased Eurofins Discovery (DiscoverX KINOMEscan scanMAX)
Procedure: as §1

[16] = target: T16, MARK1 (Homo sapiens, UniProt Q9P0L2)
T16 construct: purchased Eurofins Discovery (DiscoverX KINOMEscan scanMAX)
Procedure: as §1

[17] = target: T17, IGF1R (Homo sapiens, UniProt P08069)
T17 construct: purchased Eurofins Discovery (DiscoverX KINOMEscan scanMAX)
Procedure: as §1

[18] = target: T18, EGFR(L861Q) (Homo sapiens, UniProt P00533, L861Q)
T18 construct: purchased Eurofins Discovery (DiscoverX KINOMEscan scanMAX)
Procedure: as §1

[19] = target: T19, NEK10 (Homo sapiens, UniProt Q6ZWH5)
T19 construct: purchased Eurofins Discovery (DiscoverX KINOMEscan scanMAX)
Procedure: as §1

[20] = target: T20, VRK2 (Homo sapiens, UniProt Q86Y07)
T20 construct: purchased Eurofins Discovery (DiscoverX KINOMEscan scanMAX)
Procedure: as §1

[21] = target: T21, NEK11 (Homo sapiens, UniProt Q8NG66)
T21 construct: purchased Eurofins Discovery (DiscoverX KINOMEscan scanMAX)
Procedure: as §1

[22] = target: T22, PDPK1 (Homo sapiens, UniProt O15530)
T22 construct: purchased Eurofins Discovery (DiscoverX KINOMEscan scanMAX)
Procedure: as §1

[23] = target: T23, CAMK2G (Homo sapiens, UniProt Q13555)
T23 construct: purchased Eurofins Discovery (DiscoverX KINOMEscan scanMAX)
Procedure: as §1

[24] = target: T24, RIPK4 (Homo sapiens, UniProt P57078)
T24 construct: purchased Eurofins Discovery (DiscoverX KINOMEscan scanMAX)
Procedure: as §1

[25] = target: T25, DRAK2 (Homo sapiens, UniProt O94768)
T25 construct: purchased Eurofins Discovery (DiscoverX KINOMEscan scanMAX)
Procedure: as §1

[26] = target: T26, INSRR (Homo sapiens, UniProt P14616)
T26 construct: purchased Eurofins Discovery (DiscoverX KINOMEscan scanMAX)
Procedure: as §1

[27] = target: T27, EGFR(T790M) (Homo sapiens, UniProt P00533, T790M)
T27 construct: purchased Eurofins Discovery (DiscoverX KINOMEscan scanMAX)
Procedure: as §1

[28] = target: T28, MAP4K5 (Homo sapiens, UniProt Q9Y4K4)
T28 construct: purchased Eurofins Discovery (DiscoverX KINOMEscan scanMAX)
Procedure: as §1

[29] = target: T29, SIK (Homo sapiens, UniProt P57059)
T29 construct: purchased Eurofins Discovery (DiscoverX KINOMEscan scanMAX)
Procedure: as §1

[30] = target: T30, PIK3CA(I800L) (Homo sapiens, UniProt P42336, I800L)
T30 construct: purchased Eurofins Discovery (DiscoverX KINOMEscan scanMAX)
Procedure: as §1

[31] = target: T31, TLK1 (Homo sapiens, UniProt Q9UKI8)
T31 construct: purchased Eurofins Discovery (DiscoverX KINOMEscan scanMAX)
Procedure: as §1

[32] = target: T32, CLK1 (Homo sapiens, UniProt P49759)
T32 construct: purchased Eurofins Discovery (DiscoverX KINOMEscan scanMAX)
Procedure: as §1

[33] = target: T33, VEGFR2 (Homo sapiens, UniProt P35968)
T33 construct: purchased Eurofins Discovery (DiscoverX KINOMEscan scanMAX)
Procedure: as §1

[34] = target: T34, CDK4-cyclinD1 (Homo sapiens, UniProt P11802)
T34 construct: purchased Eurofins Discovery (DiscoverX KINOMEscan scanMAX)
Procedure: as §1

T29 sequence (P57059 whole entry): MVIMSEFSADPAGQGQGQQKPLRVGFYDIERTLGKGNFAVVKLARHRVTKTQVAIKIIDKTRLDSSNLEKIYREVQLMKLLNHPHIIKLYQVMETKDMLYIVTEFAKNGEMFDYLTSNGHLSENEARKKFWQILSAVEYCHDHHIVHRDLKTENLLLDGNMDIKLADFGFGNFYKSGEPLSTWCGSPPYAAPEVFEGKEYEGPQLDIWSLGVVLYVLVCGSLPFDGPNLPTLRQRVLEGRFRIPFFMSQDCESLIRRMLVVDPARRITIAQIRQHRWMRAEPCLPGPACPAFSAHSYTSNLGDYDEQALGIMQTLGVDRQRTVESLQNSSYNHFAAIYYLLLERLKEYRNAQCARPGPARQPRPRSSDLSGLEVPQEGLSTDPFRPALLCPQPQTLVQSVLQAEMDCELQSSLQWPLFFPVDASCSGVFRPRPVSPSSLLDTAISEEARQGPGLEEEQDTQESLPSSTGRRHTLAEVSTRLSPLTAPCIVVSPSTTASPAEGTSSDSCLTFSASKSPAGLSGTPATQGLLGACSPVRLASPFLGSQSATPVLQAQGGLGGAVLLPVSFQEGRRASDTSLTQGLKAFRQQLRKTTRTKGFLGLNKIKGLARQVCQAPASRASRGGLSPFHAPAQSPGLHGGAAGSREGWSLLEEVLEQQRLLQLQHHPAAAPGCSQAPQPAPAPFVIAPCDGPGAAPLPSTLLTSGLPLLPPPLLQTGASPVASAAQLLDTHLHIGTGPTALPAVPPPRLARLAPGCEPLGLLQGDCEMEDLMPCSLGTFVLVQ
T18 sequence (P00533 25-1210 L861Q): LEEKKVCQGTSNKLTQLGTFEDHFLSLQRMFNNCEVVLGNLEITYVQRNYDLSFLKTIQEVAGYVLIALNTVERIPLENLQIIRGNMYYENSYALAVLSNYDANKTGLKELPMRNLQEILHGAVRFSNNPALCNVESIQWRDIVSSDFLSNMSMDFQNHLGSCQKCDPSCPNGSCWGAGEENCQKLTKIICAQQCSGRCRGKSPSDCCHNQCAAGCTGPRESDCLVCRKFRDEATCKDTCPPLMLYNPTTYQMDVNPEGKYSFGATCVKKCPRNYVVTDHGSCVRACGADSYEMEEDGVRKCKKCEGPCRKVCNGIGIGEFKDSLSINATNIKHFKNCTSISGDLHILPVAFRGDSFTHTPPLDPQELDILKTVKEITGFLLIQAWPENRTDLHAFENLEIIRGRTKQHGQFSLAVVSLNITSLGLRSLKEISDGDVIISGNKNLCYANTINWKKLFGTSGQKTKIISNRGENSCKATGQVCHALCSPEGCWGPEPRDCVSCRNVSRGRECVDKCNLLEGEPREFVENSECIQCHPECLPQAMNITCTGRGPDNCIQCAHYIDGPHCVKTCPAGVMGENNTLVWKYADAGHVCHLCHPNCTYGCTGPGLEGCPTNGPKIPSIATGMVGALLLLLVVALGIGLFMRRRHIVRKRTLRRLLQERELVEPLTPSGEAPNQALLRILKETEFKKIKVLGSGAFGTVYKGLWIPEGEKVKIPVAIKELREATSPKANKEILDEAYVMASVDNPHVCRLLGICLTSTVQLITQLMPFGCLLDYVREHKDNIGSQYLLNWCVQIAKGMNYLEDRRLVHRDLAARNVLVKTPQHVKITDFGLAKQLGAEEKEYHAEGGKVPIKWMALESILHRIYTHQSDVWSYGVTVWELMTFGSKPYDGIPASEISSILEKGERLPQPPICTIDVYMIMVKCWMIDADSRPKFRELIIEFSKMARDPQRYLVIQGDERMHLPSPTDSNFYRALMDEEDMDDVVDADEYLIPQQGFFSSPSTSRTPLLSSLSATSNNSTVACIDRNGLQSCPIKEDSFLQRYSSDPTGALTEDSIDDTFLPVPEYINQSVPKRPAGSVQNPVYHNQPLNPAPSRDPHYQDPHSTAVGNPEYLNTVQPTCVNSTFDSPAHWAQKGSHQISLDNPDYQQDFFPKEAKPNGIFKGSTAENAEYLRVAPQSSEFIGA
T28 sequence (Q9Y4K4 whole entry): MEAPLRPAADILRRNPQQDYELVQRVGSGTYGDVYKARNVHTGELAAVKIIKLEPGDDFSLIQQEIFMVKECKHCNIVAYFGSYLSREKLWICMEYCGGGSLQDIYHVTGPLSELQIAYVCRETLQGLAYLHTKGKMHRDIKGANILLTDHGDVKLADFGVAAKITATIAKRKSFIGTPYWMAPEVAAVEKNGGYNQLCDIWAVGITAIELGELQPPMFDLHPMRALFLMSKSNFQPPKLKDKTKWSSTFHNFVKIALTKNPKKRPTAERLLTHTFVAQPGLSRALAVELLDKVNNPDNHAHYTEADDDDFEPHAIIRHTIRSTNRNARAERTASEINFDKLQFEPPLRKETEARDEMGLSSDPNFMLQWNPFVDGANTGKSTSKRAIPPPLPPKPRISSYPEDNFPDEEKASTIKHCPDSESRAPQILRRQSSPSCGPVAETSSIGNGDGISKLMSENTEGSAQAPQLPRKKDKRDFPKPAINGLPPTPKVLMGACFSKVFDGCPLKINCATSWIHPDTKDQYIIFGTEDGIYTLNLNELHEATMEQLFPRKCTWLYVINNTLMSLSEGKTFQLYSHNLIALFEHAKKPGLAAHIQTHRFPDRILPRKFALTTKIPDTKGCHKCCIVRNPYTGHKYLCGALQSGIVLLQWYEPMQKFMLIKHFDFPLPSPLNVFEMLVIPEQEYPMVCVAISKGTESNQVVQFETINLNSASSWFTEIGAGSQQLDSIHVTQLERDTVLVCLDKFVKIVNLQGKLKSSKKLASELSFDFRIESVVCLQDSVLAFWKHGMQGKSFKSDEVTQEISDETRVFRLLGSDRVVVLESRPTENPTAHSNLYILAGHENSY
T34 sequence (P11802 whole entry): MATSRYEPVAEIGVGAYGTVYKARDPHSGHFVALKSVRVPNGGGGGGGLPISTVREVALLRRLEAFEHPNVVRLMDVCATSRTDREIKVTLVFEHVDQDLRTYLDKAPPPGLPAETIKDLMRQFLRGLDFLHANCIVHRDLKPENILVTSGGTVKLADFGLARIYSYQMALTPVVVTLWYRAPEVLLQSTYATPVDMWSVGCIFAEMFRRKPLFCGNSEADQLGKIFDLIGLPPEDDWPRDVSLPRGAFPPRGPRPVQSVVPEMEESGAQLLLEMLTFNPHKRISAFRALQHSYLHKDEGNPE
T34 sequence (P24385 whole entry partner): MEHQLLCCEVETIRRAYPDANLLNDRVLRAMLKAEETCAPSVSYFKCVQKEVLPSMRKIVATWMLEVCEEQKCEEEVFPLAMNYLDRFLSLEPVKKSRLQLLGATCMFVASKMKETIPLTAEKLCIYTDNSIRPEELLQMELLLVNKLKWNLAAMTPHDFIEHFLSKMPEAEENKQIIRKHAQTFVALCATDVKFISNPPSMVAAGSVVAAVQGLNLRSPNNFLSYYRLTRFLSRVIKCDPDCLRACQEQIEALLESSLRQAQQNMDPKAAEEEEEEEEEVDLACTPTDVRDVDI
T8 sequence (P11802 whole entry): as the sequence (P11802 whole entry) above
T8 sequence (P30281 whole entry partner): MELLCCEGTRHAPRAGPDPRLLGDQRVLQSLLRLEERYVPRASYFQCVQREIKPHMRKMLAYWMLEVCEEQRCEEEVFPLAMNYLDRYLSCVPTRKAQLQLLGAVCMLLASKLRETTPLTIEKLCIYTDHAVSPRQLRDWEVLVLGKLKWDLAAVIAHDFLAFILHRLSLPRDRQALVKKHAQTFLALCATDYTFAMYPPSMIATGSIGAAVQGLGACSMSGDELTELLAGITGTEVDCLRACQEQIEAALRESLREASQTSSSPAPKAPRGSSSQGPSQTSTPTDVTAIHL
T11 sequence (Q9H4B4 whole entry): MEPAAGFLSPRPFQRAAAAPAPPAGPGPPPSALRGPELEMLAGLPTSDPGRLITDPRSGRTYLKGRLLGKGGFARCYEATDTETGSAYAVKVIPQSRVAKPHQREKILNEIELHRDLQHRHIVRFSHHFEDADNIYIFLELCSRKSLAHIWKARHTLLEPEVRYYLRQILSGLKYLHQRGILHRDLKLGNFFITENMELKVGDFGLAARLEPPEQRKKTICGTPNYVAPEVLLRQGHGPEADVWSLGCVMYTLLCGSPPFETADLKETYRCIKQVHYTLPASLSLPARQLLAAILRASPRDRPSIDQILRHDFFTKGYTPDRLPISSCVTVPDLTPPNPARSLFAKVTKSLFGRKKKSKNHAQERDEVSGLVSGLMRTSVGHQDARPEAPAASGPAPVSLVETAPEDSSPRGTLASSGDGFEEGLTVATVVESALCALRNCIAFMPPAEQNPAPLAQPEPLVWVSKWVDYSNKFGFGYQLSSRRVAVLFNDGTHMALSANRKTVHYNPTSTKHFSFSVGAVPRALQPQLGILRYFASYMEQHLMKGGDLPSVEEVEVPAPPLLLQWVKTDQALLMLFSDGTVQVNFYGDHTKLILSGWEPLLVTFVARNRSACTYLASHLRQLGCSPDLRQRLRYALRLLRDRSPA
T10 sequence (P41240 whole entry): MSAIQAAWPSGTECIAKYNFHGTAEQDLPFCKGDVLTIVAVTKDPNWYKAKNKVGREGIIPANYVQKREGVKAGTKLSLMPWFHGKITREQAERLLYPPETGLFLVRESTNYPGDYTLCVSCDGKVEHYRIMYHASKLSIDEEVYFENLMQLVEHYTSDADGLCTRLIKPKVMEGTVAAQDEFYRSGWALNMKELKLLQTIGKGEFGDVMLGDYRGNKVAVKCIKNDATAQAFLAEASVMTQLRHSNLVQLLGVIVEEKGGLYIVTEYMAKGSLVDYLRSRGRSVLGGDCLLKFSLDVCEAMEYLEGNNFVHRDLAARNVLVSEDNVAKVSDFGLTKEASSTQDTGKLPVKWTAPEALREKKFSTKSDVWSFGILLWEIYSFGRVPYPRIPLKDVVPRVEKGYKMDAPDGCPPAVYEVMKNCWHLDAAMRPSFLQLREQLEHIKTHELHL

Cc1cc(Nc2ccc(F)c(CC3(C(=O)N4CCC(F)(CN5CCN(c6ccc(N7CCC(=O)NC7=O)cn6)CC5)CC4)CCN(Cc4cccc(Cl)c4F)CC3)n2)n[nH]1 [SK5527]
remaining binding at 0.1 µM ([1]; 100 nM): 62%
remaining binding at 1 µM ([1]; 1000 nM): 25%
remaining binding at 0.1 µM ([2]; 100 nM): 95%
remaining binding at 1 µM ([2]; 1000 nM): 99%
remaining binding at 0.1 µM ([3]; 100 nM): 92%
remaining binding at 1 µM ([3]; 1000 nM): 85%
remaining binding at 0.1 µM ([4]; 100 nM): 97%
remaining binding at 1 µM ([4]; 1000 nM): 90%
remaining binding at 0.1 µM ([5]; 100 nM): 100%
remaining binding at 1 µM ([5]; 1000 nM): 86%
remaining binding at 0.1 µM ([6]; 100 nM): 100%
remaining binding at 1 µM ([6]; 1000 nM): 95%
remaining binding at 0.1 µM ([7]; 100 nM): 100%
remaining binding at 1 µM ([7]; 1000 nM): 98%
remaining binding at 0.1 µM ([8]; 100 nM): 100%
remaining binding at 1 µM ([8]; 1000 nM): 100%
remaining binding at 0.1 µM ([9]; 100 nM): 100%
remaining binding at 1 µM ([9]; 1000 nM): 88%
remaining binding at 0.1 µM ([10]; 100 nM): 100%
remaining binding at 1 µM ([10]; 1000 nM): 100%
remaining binding at 0.1 µM ([11]; 100 nM): 100%
remaining binding at 1 µM ([11]; 1000 nM): 86%
remaining binding at 0.1 µM ([12]; 100 nM): 100%
remaining binding at 1 µM ([12]; 1000 nM): 79%
remaining binding at 0.1 µM ([13]; 100 nM): 100%
remaining binding at 1 µM ([13]; 1000 nM): 100%
remaining binding at 0.1 µM ([14]; 100 nM): 100%
remaining binding at 1 µM ([14]; 1000 nM): 100%
remaining binding at 0.1 µM ([15]; 100 nM): 84%
remaining binding at 1 µM ([15]; 1000 nM): 74%
remaining binding at 0.1 µM ([16]; 100 nM): 100%
remaining binding at 1 µM ([16]; 1000 nM): 100%
remaining binding at 0.1 µM ([17]; 100 nM): 87%
remaining binding at 1 µM ([17]; 1000 nM): 89%
remaining binding at 0.1 µM ([18]; 100 nM): 95%
remaining binding at 1 µM ([18]; 1000 nM): 100%
remaining binding at 0.1 µM ([19]; 100 nM): 100%
remaining binding at 1 µM ([19]; 1000 nM): 100%
remaining binding at 0.1 µM ([20]; 100 nM): 82%
remaining binding at 1 µM ([20]; 1000 nM): 77%
remaining binding at 0.1 µM ([21]; 100 nM): 100%
remaining binding at 1 µM ([21]; 1000 nM): 100%
remaining binding at 0.1 µM ([22]; 100 nM): 89%
remaining binding at 1 µM ([22]; 1000 nM): 100%
remaining binding at 0.1 µM ([23]; 100 nM): 100%
remaining binding at 1 µM ([23]; 1000 nM): 100%
remaining binding at 0.1 µM ([24]; 100 nM): 67%
remaining binding at 1 µM ([24]; 1000 nM): 46%
remaining binding at 0.1 µM ([25]; 100 nM): 100%
remaining binding at 1 µM ([25]; 1000 nM): 100%
remaining binding at 0.1 µM ([26]; 100 nM): 97%
remaining binding at 1 µM ([26]; 1000 nM): 90%
remaining binding at 0.1 µM ([27]; 100 nM): 92%
remaining binding at 1 µM ([27]; 1000 nM): 91%
remaining binding at 0.1 µM ([28]; 100 nM): 100%
remaining binding at 1 µM ([28]; 1000 nM): 100%
remaining binding at 0.1 µM ([29]; 100 nM): 93%
remaining binding at 1 µM ([29]; 1000 nM): 59%
remaining binding at 0.1 µM ([30]; 100 nM): 85%
remaining binding at 1 µM ([30]; 1000 nM): 74%
remaining binding at 0.1 µM ([31]; 100 nM): 88%
remaining binding at 1 µM ([31]; 1000 nM): 74%
remaining binding at 0.1 µM ([32]; 100 nM): 92%
remaining binding at 1 µM ([32]; 1000 nM): 77%
remaining binding at 0.1 µM ([33]; 100 nM): 85%
remaining binding at 1 µM ([33]; 1000 nM): 65%
remaining binding at 0.1 µM ([34]; 100 nM): 100%
remaining binding at 1 µM ([34]; 1000 nM): 87%

From article PMC12670405, “Second-Generation AURKA-Targeting PROTACs: Structural Optimization toward in Vivo Degradation in Neuroblastoma” (Journal of Medicinal Chemistry, 2025)
